Values after ≈ are worked out from the molar mass of the structure shown. “Also recorded” adds a separate entry of the source. Like-named read-outs stand apart in the source and are kept apart here.
Tests used:
[1] = molecular target: T1, MabA (Mycobacterium tuberculosis, UniProt P9WGT3); assay: MabA LC-MS/MS-based enzymatic assay (reduction of acetoacetyl-CoA into HBCoA); type: biochemical; conditions: for IC50: concentration inhibiting 50% of the transformation of acetoacetyl-CoA in HBCoA in the presence of NADPH, LC-MS/MS
T1 sequence (P9WGT3 whole entry, looked up): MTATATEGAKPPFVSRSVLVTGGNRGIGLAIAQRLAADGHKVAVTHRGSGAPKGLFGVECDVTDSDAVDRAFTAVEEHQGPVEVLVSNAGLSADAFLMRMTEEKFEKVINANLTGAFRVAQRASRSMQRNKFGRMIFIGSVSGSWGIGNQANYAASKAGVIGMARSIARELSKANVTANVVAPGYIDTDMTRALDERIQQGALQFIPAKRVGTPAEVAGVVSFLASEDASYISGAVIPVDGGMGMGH

[2] = Solubility in PBS pH 7.4; conditions: PBS pH 7.4, pH 7.4, aqueous buffer, kinetic from dmso stock
[3] = system: GFP-expressing M. tuberculosis H37Rv; assay: microbe, parasite or virus in culture; type: cell-based; conditions: Mycobacterium tuberculosis
[4] = system: plasma proteins; assay: Plasma protein binding by rapid equilibrium dialysis; conditions: 10% plasma (diluted 1 to 10 in phosphate buffer), pH 7.2
[5] = Solubility in Sauton medium; type: physicochemical; conditions: aqueous buffer
[6] = LogD octanol/PBS pH 7.4; conditions: octanol/PBS 1/1, pH 7.4
[7] = system: M. tuberculosis H37Rv; type: cell-based
[8] = system: GFP-expressing M. tuberculosis H37Rv; design: method as in PMID 32505086; conditions: Middlebrook 7H9 liquid medium with OADC (contains albumin); 5 days; GFP signal; reported previously; cited from earlier work
[9] = system: H37Rv; type: cell-based, M. tuberculosis
[10] = system: H37Rv; type: cell-based, M. tuberculosis; remark: listed apart in the source
[11] = system: H37Rv carrying pUV15-pHGFP; type: cell-based, M. tuberculosis; conditions: pH 4.5
[12] = molecular target: T1, MabA; type: binding

With O=C(O)c1cc(Br)ccc1C(=O)Nc1ccc(Cl)c(Cl)c1 [Compound 5, 5-bromo-2-[(3,4-dichlorophenyl)carbamoyl]benzoic Acid] as the compound, how does the IC50 [1] read?
Its IC50 is 268 µM.

Which results are given for O=C(Nc1cc(-n2cccn2)ccc1C(=O)O)c1ccc(Cl)c(Cl)c1 [Compound 18, 2-[(3,4-dichlorobenzoyl)amino]-4-pyrazol-1-yl-benzoic Acid]?
solubility at 24 h [2]: 149 µM (≈ 56.1 µg/mL); MIC90 ([3]; 168 h): 300 µM (≈ 113 µg/mL); improvement of the activity by a factor [1]: 1.6; IC50 [1]: 23 µM; fraction unbound at 4 h, 10 µM [4]: < 0.0001; solubility [5]: > 300 µM; logD at 2 h [6]: 2.54; effect on mycolic acids synthesis (TLC) [7]: no specific inhibition of mycolic acids

Which results are given for O=C(Nc1ccc(Br)cc1C(=O)O)c1ccc(Cl)c(Cl)c1 [Compound 2, 5-bromo-2-[(3,4-dichlorobenzoyl)amino]benzoic Acid]?
MIC90 [8]: 300 µM (≈ 117 µg/mL); solubility at 24 h [2]: 181 µM (≈ 70.4 µg/mL); MIC90 ([3]; 168 h): 100 µM (≈ 38.9 µg/mL); IC50 [1]: 45 µM; logD at 2 h [6]: 3

For CN(C(=O)c1ccc(Cl)c(Cl)c1)c1ccc(I)cc1C(=O)O [Compound 3, 2-[(3,4-dichlorobenzoyl)-methyl-amino]-5-iodo-benzoic Acid], which IC50 [1] is on record?
Its IC50 is > 200 µM.

For O=C(Nc1ccc(C#CC2CC2)cc1C(=O)O)c1ccc(Cl)c(Cl)c1 [Compound 16, 5-(2-cyclopropylethynyl)-2-[(3,4-dichlorobenzoyl)amino]benzoic Acid], which transcriptional response [9] is on record?
The transcriptional response was “downregulation of genes implicated in DNA replication, transcription, translation and growth”.

And the solubility at 24 h [2]?
The solubility at 24 h was > 200 µM.

What about the MIC90 ([3]; 168 h) of the same compound?
The MIC90 was 100 µM (≈ 37.4 µg/mL).

What about the IC50 [1] of the same compound?
The IC50 was 60 µM.

What about the fraction unbound at 4 h, 10 µM [4] of the same compound?
Its fraction unbound at 4 h, 10 µM is 0.0006.

What about the “effect of pH on potency” value [10] of the same compound?
Its value is “decreasing pH improved the potency”.

And the “effect on intrabacterial pH” value [11]?
The value was “dose-dependent decrease in the intrabacterial pH”.

What about the solubility [5] of the same compound?
Its solubility is > 300 µM.

What about the “effect on mycolic acids synthesis (TLC)” value [7] of the same compound?
The value was “no specific inhibition of mycolic acids”.

With CS(=O)(=O)NC(=O)c1cc(I)ccc1NC(=O)c1ccc(Cl)c(Cl)c1 [Compound 13, 3,4-dichloro-N-[4-iodo-2-(methylsulfonylcarbamoyl)phenyl]benzamide] as the compound, how does the IC50 [1] read?
The IC50 was 28 µM.

For N#Cc1cc(I)ccc1NC(=O)c1ccc(Cl)c(Cl)c1 [Compound 10, 3,4-dichloro-N-(2-cyano-4-iodo-phenyl)benzamide], which IC50 [1] is on record?
Its IC50 is > 1000 µM.

With CCc1cc(C(N)=S)ccn1 [ethionamide, reference compound] as the compound, how does the MIC ([3]; 168 h) read?
The MIC was 2 µg/mL (≈ 12 µM).

With O=C(Nc1ccccc1C(=O)O)c1ccc(Cl)c(Cl)c1 [Compound 15, 2-[(3,4-dichlorobenzoyl)amino]benzoic Acid] as the compound, how does the IC50 [1] read?
The IC50 was > 1000 µM.

For C#Cc1ccc(C(=O)O)c(NC(=O)c2ccc(Cl)c(Cl)c2)c1 [Compound 17, 2-[(3,4-dichlorobenzoyl)amino]-4-ethynyl-benzoic Acid], which “fold reduction in potency” value [1] is on record?
The value was 2 fold.

And the IC50 [1]?
Its IC50 is 77 µM.

What does the source list for O=C(Nc1nc2ccccc2cc1C(=O)O)c1ccc(Cl)c(Cl)c1 [Compound 20, 2-[(3,4-dichlorobenzoyl)amino]quinoline-3-carboxylic Acid]?
fold reduction in potency [1]: 2 fold; IC50 [1]: 76 µM

For NC(=O)c1cc(I)ccc1NC(=O)c1ccc(Cl)c(Cl)c1 [Compound 9, N-(2-carbamoyl-4-iodo-phenyl)-3,4-dichloro-benzamide], which IC50 [1] is on record?
Its IC50 is > 500 µM.

Which IC50 [1] does the source give for O=C(O)c1cc(I)ccc1NS(=O)(=O)c1ccc(Cl)c(Cl)c1 [Compound 4, 2-[(3,4-dichlorophenyl)sulfonylamino]-5-iodo-benzoic Acid] here?
The IC50 was 40 µM.

With NNC(=O)c1ccncc1 [isoniazid, reference compound] as the compound, how does the MIC ([3]; 168 h) read?
Its MIC is 0.125 µg/mL (≈ 0.911 µM).

What about the “effect on mycolic acids synthesis (TLC)” value [7] of the same compound?
Its value is “decrease in mycolic acids synthesis”.

Which results are given for O=C(Nc1ccc(I)cc1C(=O)O)c1ccc(Cl)c(Cl)c1 [Compound 1, 2-[(3,4-dichlorobenzoyl)amino]-5-iodo-benzoic acid]?
MIC90 [8]: 300 µM (≈ 131 µg/mL); solubility at 24 h [2]: > 200 µM; MIC90 [3]: 300 µM (≈ 131 µg/mL); MIC90 ([3]; 168 h): 100 µM (≈ 43.6 µg/mL); IC50 [1]: 38 ± 6 µM; fraction unbound at 4 h, 10 µM [4]: 0.0014; logD at 2 h [6]: 3.4

With O=C(Nc1ccc(I)cc1CO)c1ccc(Cl)c(Cl)c1 [Compound 8, 3,4-dichloro-N-[2-(hydroxymethyl)-4-iodo-phenyl]benzamide] as the compound, how does the IC50 [1] read?
The IC50 was > 333 µM.

For O=C(O)c1cc(Br)ccc1NC(=S)c1ccc(Cl)c(Cl)c1 [Compound 6, 5-bromo-2-[(3,4-dichlorobenzenecarbothioyl)amino]benzoic Acid], which IC50 [1] is on record?
Its IC50 is 39 µM.

With O=C(Nc1ccc(I)cc1C(=O)NS(=O)(=O)C(F)(F)F)c1ccc(Cl)c(Cl)c1 [Compound 12, 3,4-dichloro-N-[4-iodo-2-(trifluoromethylsulfonylcarbamoyl)phenyl]benzamide] as the compound, how does the “19F- and 1H-NMR signal in the presence of MabA” value [12] read?
The value was “confirmed the direct binding; also recorded: total disappearance of the signal”.

And the solubility at 24 h [2]?
The solubility at 24 h was 180 µM (≈ 102 µg/mL).

And the MIC90 ([3]; 168 h)?
The MIC90 was 300 µM (≈ 170 µg/mL).

And the IC50 [1]?
Its IC50 is 35 µM.

What about the fraction unbound at 4 h, 10 µM [4] of the same compound?
Its fraction unbound at 4 h, 10 µM is 0.0002.

And the logD at 2 h [6]?
Its logD at 2 h is 4.1.

With O=C(Nc1ccc(I)cc1-c1nnn[nH]1)c1ccc(Cl)c(Cl)c1 [Compound 11, 3,4-dichloro-N-[4-iodo-2-(1H-tetrazol-5-yl)phenyl]benzamide] as the compound, how does the IC50 [1] read?
Its IC50 is 24 µM.

Which MIC ([3]; 168 h) does the source give for CO[C@H]1/C=C/O[C@@]2(C)Oc3c(C)c(O)c4c(O)c(c(/C=N/N5CCN(C)CC5)c(O)c4c3C2=O)NC(=O)/C(C)=C\C=C\[C@H](C)[C@H](O)[C@@H](C)[C@@H](O)[C@@H](C)[C@H](OC(C)=O)[C@@H]1C [rifampicine, reference compound] here?
The MIC was 0.004 µg/mL (≈ 0.00486 µM).

Which IC50 [1] does the source give for O=C(O)c1cc(Br)ccc1-c1nc(-c2ccc(Cl)c(Cl)c2)no1 [Compound 7, 5-bromo-2-[3-(3,4-dichlorophenyl)-1,2,4-oxadiazol-5-yl]benzoic Acid] here?
The IC50 was 102 µM.

Which IC50 [1] does the source give for O=C(Nc1cc(Br)ccc1C(=O)O)c1ccc(Cl)c(Cl)c1 [Compound 14, 4-bromo-2-[(3,4-dichlorobenzoyl)amino]benzoic Acid] here?
The IC50 was 34 µM.

With O=C(Nc1cc2ccccc2cc1C(=O)O)c1ccc(Cl)c(Cl)c1 [Compound 19, 3-[(3,4-dichlorobenzoyl)amino]naphthalene-2-carboxylic Acid] as the compound, how does the IC50 [1] read?
The IC50 was 33 µM.

Source: article PMC10057394, “Exploring the Antitubercular Activity of Anthranilic Acid Derivatives: From MabA (FabG1) Inhibition to Intrabacterial Acidification” (Pharmaceuticals, 2023)
